Active and inactive are the calls of the source. The rule behind the calls is not given here.
Experiments:
Danio rerio [1] = species: Danio rerio; assay: Toxicity in zebra fish larvae at 5 uM after 48 hrs; format: organism-based; conditions: zebrafish, in vivo
3T3-L1 [2] = assay: Cytotoxicity against mouse 3T3L1 cells at 50 uM after 24 hrs by sulforhodamine B assay; format: cell-based; conditions: 3t3-l1, 24 h
3T3-L1 [3] = assay: Cytotoxicity against mouse 3T3L1 cells at 50 uM after 48 hrs by sulforhodamine B assay; format: cell-based; conditions: 3t3-l1, 48 h
Danio rerio [4] = species: Danio rerio; assay: Toxicity in zebra fish larvae assessed as induction of malformation at 50 uM after 24 to 48 hrs; format: organism-based; conditions: zebrafish, in vivo
Danio rerio [5] = species: Danio rerio; assay: Lipid lowering activity in zebrafish embryos by Nile red fat metabolism assay; format: functional, organism-based
Danio rerio [6] = species: Danio rerio; assay: Lipid lowering activity in zebrafish embryos at 5 uM by Nile red fat metabolism assay; format: functional, organism-based
Danio rerio [7] = species: Danio rerio; assay: Downregulation of fasn mRNA expression in zebra fish larvae at lipid lowering activity EC50 after 48 hrs by RT-PCR analysis; format: functional
Danio rerio [8] = species: Danio rerio; assay: Lipid lowering activity in zebrafish embryos 50 uM by Nile red fat metabolism assay; format: functional, organism-based

## O=c1c2cc(O)ccc2oc2cccc(O)c12
Danio rerio [1]
  Activity: 0 to 25%
3T3-L1 [2]
  Activity: 0 to 25%
3T3-L1 [3]
  Activity: 0 to 25%
Danio rerio [4]
  Activity: Toxic

## COc1cc2oc3ccccc3c(=O)c2cc1OC
Danio rerio [5]
  EC50: 280 nM
Danio rerio [6]
  Activity: Active
Danio rerio [7]
  fold change (FC): 2
Danio rerio [1]
  Activity: 0 to 25%
3T3-L1 [2]
  Activity: 0 to 25%
3T3-L1 [3]
  Activity: 0 to 25%

## Oc1ccc(/C=C/c2cc(O)cc(O)c2)cc1 [RESVERATROL]
Danio rerio [5]
  EC50: 600 nM
Danio rerio [6]
  Activity: Active
Danio rerio [8]
  Activity: Active

## O=c1c2ccccc2oc2ccc(O)c(O)c12
Danio rerio [5]
  EC50: 130 nM
Danio rerio [6]
  Activity: Active
Danio rerio [7]
  Activity: inactive
Danio rerio [1]
  Activity: 0 to 25%
3T3-L1 [2]
  Activity: 0 to 25%
3T3-L1 [3]
  Activity: 0 to 25%

## COc1c2c(cc3c(=O)c4cc(C)ccc4oc13)CCC(C)(C)O2
Danio rerio [5]
  EC50: 420 nM
Danio rerio [6]
  Activity: Active
Danio rerio [1]
  Activity: 0 to 25%
3T3-L1 [2]
  Activity: 0 to 50%
3T3-L1 [3]
  Activity: 0 to 25%

## COc1cccc2oc3ccccc3c(=O)c12
Danio rerio [5]
  EC50: 790 nM
Danio rerio [6]
  Activity: Active
Danio rerio [1]
  Activity: 0 to 25%
3T3-L1 [2]
  Activity: 0 to 25%
3T3-L1 [3]
  Activity: 0 to 25%

## O=c1c2ccccc2oc2cccc(O)c12
Danio rerio [5]
  EC50: 620 nM
Danio rerio [6]
  Activity: Active
Danio rerio [1]
  Activity: 0 to 25%
3T3-L1 [2]
  Activity: 0 to 25%
3T3-L1 [3]
  Activity: 0 to 25%

## COc1cc2oc3c(OC)c4c(cc3c(=O)c2cc1OC)CCC(C)(C)O4
Danio rerio [5]
  EC50: 540 nM
Danio rerio [6]
  Activity: Active
Danio rerio [1]
  Activity: 0 to 25%
3T3-L1 [2]
  Activity: 0 to 25%
3T3-L1 [3]
  Activity: 0 to 25%

## CCCOc1ccc(NCC(C)C)c2c(=O)c3ccccc3sc12
Danio rerio [5]
  EC50: 70 nM
Danio rerio [6]
  Activity: Active
Danio rerio [7]
  Activity: inactive
Danio rerio [1]
  Activity: 0 to 25%
3T3-L1 [2]
  Activity: 0 to 25%
3T3-L1 [3]
  Activity: 0 to 25%

## COC(=O)COc1ccc2c(=O)c3ccc(OCC(=O)OC)cc3oc2c1
Danio rerio [5]
  EC50: 1670 nM
Danio rerio [6]
  Activity: Active
Danio rerio [1]
  Activity: 0 to 25%
3T3-L1 [2]
  Activity: 0 to 25%
3T3-L1 [3]
  Activity: 0 to 25%

## CC1(C)C=Cc2cc(O)c3c(=O)c4ccccc4oc3c2O1
Danio rerio [5]
  EC50: 290 nM
Danio rerio [6]
  Activity: Active
Danio rerio [1]
  Activity: 0 to 25%
3T3-L1 [2]
  Activity: 0 to 25%
3T3-L1 [3]
  Activity: 0 to 25%

From ChEMBL document CHEMBL4152195, “Lipid reducing activity and toxicity profiles of a library of polyphenol derivatives” (Eur J Med Chem, 2018)
